# From patent publication US12595504B2, “Methods for screening compounds for bactericidal activity and for determining the sensitivity of bacterial samples” (priority 2020, dated 2026)
# Read-outs that look alike come from different tables or passages of the source.
# Assays:
# Escherichia coli MG1655 = experiment: Antibiotic MIC determination (serial twofold dilutions, OD600 during 17 hours at 37° C.); type: cell-based; details: for MIC: Escherichia coli
# Description: The Minimal Inhibitory Concentration (MIC) of the antibiotics was determined under the same culture conditions as the tests using the ATP assay kit. […] An exponentially growing culture (OD600=0.3) was added to each well (60 μl/well) of a sterile microtiter plate containing the test concentration of antibiotic (40 μl/well). The volume was completed to 120 μl with medium and OD600 nm measurements were performed using a microtiter plate reader (Infinite 200 PRO, TECAN) during 17 hours at 37° C.
# In all the following experiments, the MIC values were measured for each antibiotic with parameters such as temperature, OD600 and equipment identical to those used for the bioluminescence assay.
# thermostable luciferase = target: T1, thermostable luciferase (Nipponoluciola cruciata, UniProt P13129, A536K/G484A/G534A/I532L/M501V/N494T/N510T/P452A/P477D/R513K/R519V/S465N/S491H/S509T/T217I/T219I/V239I/V459I/V474L/V478D/V500I); type: biochemical
# T1 construct: purchased Kikkoman CheckLite AT100
# T1 sequence (P13129 other isoform, or with tags, fused parts or gaps with the stated changes): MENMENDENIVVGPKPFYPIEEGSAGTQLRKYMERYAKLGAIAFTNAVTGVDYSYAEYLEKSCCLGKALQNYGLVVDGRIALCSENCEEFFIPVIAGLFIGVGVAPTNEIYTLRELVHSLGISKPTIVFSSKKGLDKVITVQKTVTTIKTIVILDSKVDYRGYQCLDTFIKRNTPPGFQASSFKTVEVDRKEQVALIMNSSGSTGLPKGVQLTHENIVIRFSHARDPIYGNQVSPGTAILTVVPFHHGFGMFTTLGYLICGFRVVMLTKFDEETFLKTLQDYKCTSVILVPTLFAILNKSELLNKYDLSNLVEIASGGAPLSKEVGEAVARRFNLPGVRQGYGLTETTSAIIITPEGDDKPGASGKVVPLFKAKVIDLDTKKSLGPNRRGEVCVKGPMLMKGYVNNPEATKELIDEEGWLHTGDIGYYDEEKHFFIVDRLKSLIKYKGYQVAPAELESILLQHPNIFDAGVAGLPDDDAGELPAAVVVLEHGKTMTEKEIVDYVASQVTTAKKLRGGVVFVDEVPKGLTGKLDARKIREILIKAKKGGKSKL
# Description: FIG. 5. […] The luciferase-luciferin reagent was preincubated 40 min at 37° C. in presence of various antibiotics in LB before the addition of 30 nM ATP (in the absence of bacteria).
# The classical luciferase was from Molecular Probes (ATP Determination Kit (A22066)). The thermostable luciferase was from “CheckLite AT100” (kikkoman). The Luciferin-luciferase reagents were prepared following manufacturer instructions. Bacteria from exponentially growing cultures (OD600=0.3) were added to each well (60 μl/well) of a black 96-microtiter plate (Greiner Bio-one, 655076) and 20 μl of the luciferin-luciferase reagent solution was added. The microtiter plate was incubated 5 min at 37° C. for reaction with the luciferase to eliminate traces of extracellular ATP. Then 40 μl of antibiotic solution (3 times concentrated) prepared in the culture medium were added. Bioluminescence of each well was monitored for 4 hours under shaking (218 rpm) and at 28 or 37° C., depending on the experiments (see legends of Figures). The reagent stability in presence or absence of antibiotics was checked in control experiments without bacteria but with 4 pmoles of ATP. […]
# Bioluminescence was thus measured after preincubation of luciferase-lucifering reagent with the antibiotics at their maximal concentration used in this study in LB before the addition of 30 nM ATP (in the absence of bacteria).
# [1] = test system: E. coli MG1655 reporter cells; type: cell-based, Escherichia coli; details: for Lag before ATP release (shortest, incompressible value): highest concentrations tested
# Description: The classical luciferase was from Molecular Probes (ATP Determination Kit (A22066)). The thermostable luciferase was from “CheckLite AT100” (kikkoman). The Luciferin-luciferase reagents were prepared following manufacturer instructions. Bacteria from exponentially growing cultures (OD600=0.3) were added to each well (60 μl/well) of a black 96-microtiter plate (Greiner Bio-one, 655076) and 20 μl of the luciferin-luciferase reagent solution was added. The microtiter plate was incubated 5 min at 37° C. for reaction with the luciferase to eliminate traces of extracellular ATP. Then 40 μl of antibiotic solution (3 times concentrated) prepared in the culture medium were added. Bioluminescence of each well was monitored for 4 hours under shaking (218 rpm) and at 28 or 37° C., depending on the experiments (see legends of Figures). The reagent stability in presence or absence of antibiotics was checked in control experiments without bacteria but with 4 pmoles of ATP. Tests were also performed in 384-microtiter plates (Greiner Bio-one, 784076).
# Aminoglycosides are bactericidal antibiotics causing translational miscoding with lethal consequences for the cell. Leakage of small molecules following an aminoglycoside shock was previously identified by different methods including radiolabelling. Therefore, the inventors investigated the response of live cells to aminoglycoside stress.
# [2] = MG1655, read-out: MIC in MOPS glucose 0.4%, MOPS minimal medium glucose 0.4%, 37° C.
# [3] = MG1655, LB medium, OD600 0.15 final, 37° C., read-out: MIC in LB
# [4] = LB medium, OD600 0.15 final, 37° C.
# [5] = antibiotic at 3.125 μg/mL, LB, 37° C.
# [6] = antibiotic at 6.25 μg/mL, LB, 37° C.
# [7] = antibiotic at 12.5 μg/mL, LB, 37° C.
# [8] = antibiotic at 25 μg/mL, LB, 37° C.
# [9] = antibiotic at 50 μg/mL, LB, 37° C.
# [10] = MOPS minimal medium (glucose 0.4%), FIG. 11
# [11] = MOPS minimal medium glucose 0.4%, 37° C.
# [12] = antibiotic at 100 μg/mL, LB, 37° C.
# [13] = antibiotic at 200 μg/mL, LB, 37° C.
# [14] = antibiotic at 400 μg/mL, LB, 37° C.
compound,measurement,setting,value
COc1ccc(C[C@H](N)C(=O)N[C@H]2[C@@H](O)[C@H](n3cnc4c(N(C)C)ncnc43)O[C@@H]2CO)cc1 [Puromycin],MIC,Escherichia coli MG1655; [2],871 µg/mL
same,MIC,Escherichia coli MG1655; [3],435 µg/mL
same,MIC in LB,Escherichia coli MG1655; [4],377 µg/mL
same,Effect on the activity of the bioluminescence assay,"thermostable luciferase; preincubation with antibiotic in LB, 30 nM ATP, no bacteria, inhibition only at concentration above the MIC",significant inhibition of bioluminescence
same,ATP leakage,"[1]; sub-MIC concentrations, LB, FIG. 9",very weak leakage
CC1COc2c(N3CCN(C)CC3)c(F)cc3c(=O)c(C(=O)O)cn1c23 (centres unmarked) [Ofloxacin],MIC,Escherichia coli MG1655; [2],4 µg/mL
same,MIC,Escherichia coli MG1655; [3],4 µg/mL
same,Lag time of ATP release in minimal medium compared to rich medium (factor of decrease),[1]; MOPS minimal medium vs LB,2
same,Lag time before ATP,"[1]; antibiotic at 1 μg/mL, LB, 37° C.",105 min
same,Lag time before ATP,"[1]; antibiotic at 2 μg/mL, LB, 37° C.",95 min
same,Lag time before ATP,"[1]; antibiotic at 4 μg/mL, LB, 37° C.",84 min
same,Lag time before ATP,"[1]; antibiotic at 8 μg/mL, LB, 37° C.",77 min
same,"Lag before ATP release (shortest, incompressible value)","[1]; LB, 37° C.",77 min
COc1cc(Cc2cnc(N)nc2N)cc(OC)c1OC [Trimethoprim],MIC,Escherichia coli MG1655; [2],6.25 µg/mL
same,MIC,Escherichia coli MG1655; [3],50 µg/mL
same,Concentration above which the drug inhibits the luciferase reaction,thermostable luciferase,above 200 μg/mL
CN(C)[C@@H]1C(O)=C(C(N)=O)C(=O)[C@@]2(O)C(O)=C3C(=O)c4c(O)cccc4[C@@](C)(O)[C@H]3C[C@@H]12 [Tetracycline],MIC,Escherichia coli MG1655; [2],12.5 µg/mL
same,MIC,Escherichia coli MG1655; [3],12.5 µg/mL
same,High dose at which ATP release was observed,"[1]; LB, FIG. 9",4 times the MIC
CO/N=C(\C(=O)N[C@@H]1C(=O)N2C(C(=O)O)=C(CSc3nc(=O)c(=O)[nH]n3C)CS[C@H]12)c1csc(N)n1 [Ceftriaxone],MIC,Escherichia coli MG1655; [2],6.25 µg/mL
same,MIC,Escherichia coli MG1655; [3],12.5 µg/mL
same,Lag time before ATP,[1]; [5],29.7 min
same,Lag time before ATP,[1]; [6],21.2 min
same,Lag time before ATP,[1]; [7],19.2 min
same,Lag time before ATP,[1]; [8],16.5 min
same,Lag time before ATP,[1]; [9],13.9 min
CC1=C(C(=O)O)N2C(=O)[C@@H](NC(=O)[C@H](N)c3ccccc3)[C@H]2SC1 [Cephalexin],MIC,Escherichia coli MG1655; [2],17.4 µg/mL
same,MIC,Escherichia coli MG1655; [3],34.7 µg/mL
same,Shape of ATP release trace,"[1]; LB medium, 37° C., FIG. 8",multiphasic
same,Shape of ATP release trace,[1]; [10],monophasic
same,Lag time before ATP,"[1]; antibiotic at 8.8 μg/mL, LB, 37° C.",34.3 min
same,Lag time before ATP,"[1]; antibiotic at 17.5 μg/mL, LB, 37° C.",9.45 min
same,Lag time before ATP,"[1]; antibiotic at 35 μg/mL, LB, 37° C.",5 min
same,Lag time before ATP,"[1]; antibiotic at 70 μg/mL, LB, 37° C.",3.6 min
same,Lag time before ATP,"[1]; antibiotic at 140 μg/mL, LB, 37° C.",3.6 min
same,"Lag before ATP release (shortest, incompressible value)","[1]; LB, 37° C.",3.6 min
Gentamicin,MIC in LB,Escherichia coli MG1655; [4],5.7 µg/mL
same,MIC in MOPS glucose 0.4%,Escherichia coli MG1655; [11],0.6 µg/mL
same,Shape of ATP release trace,"[1]; LB medium, 37° C., FIG. 8",bi-phasic
same,Shape of ATP release trace,[1]; [10],monophasic
same,Lag time before ATP,"[1]; antibiotic at 0.19 μg/mL, LB, 37° C.",136.1 min
same,Lag time before ATP,"[1]; antibiotic at 0.39 μg/mL, LB, 37° C.",136.3 min
same,Lag time before ATP,"[1]; antibiotic at 0.78 μg/mL, LB, 37° C.",67.1 min
same,Lag time before ATP,"[1]; antibiotic at 1.56 μg/mL, LB, 37° C.",54.0 min
same,Lag time before ATP,"[1]; antibiotic at 3.12 μg/mL, LB, 37° C.",30.2 min
same,Lag time before ATP,[1]; [6],16.2 min
same,Lag time before ATP,[1]; [7],12.9 min
Bleomycin,MIC in LB,Escherichia coli MG1655; [4],100 µg/mL
same,MIC in MOPS glucose 0.4%,Escherichia coli MG1655; [11],200 µg/mL
same,Lag time before ATP,[1]; [8],164.0 min
same,Lag time before ATP,[1]; [9],142.0 min
same,Lag time before ATP,[1]; [12],98.0 min
same,Lag time before ATP,[1]; [13],78.0 min
same,Lag time before ATP,[1]; [14],71.5 min
CCn1cc(C(=O)O)c(=O)c2ccc(C)nc21 [Nalidixic acid],MIC,"Escherichia coli MG1655; MG1655, read-out: MIC in LB",256 µg/mL
same,MIC,"Escherichia coli MG1655; MG1655, read-out: MIC in MOPS glucose 0.4%",256 µg/mL
same,Lag time before ATP,"[1]; antibiotic at 16 μg/mL, LB, 37° C.",127.3 min
same,Lag time before ATP,"[1]; antibiotic at 32 μg/mL, LB, 37° C.",114.1 min
same,Lag time before ATP,"[1]; antibiotic at 64 μg/mL, LB, 37° C.",88.9 min
same,Lag time before ATP,"[1]; antibiotic at 128 μg/mL, LB, 37° C.",79.1 min
same,Lag time before ATP,"[1]; antibiotic at 258 μg/mL, LB, 37° C.",50.8 min
same,Lag time before ATP,"[1]; antibiotic at 516 μg/mL, LB, 37° C.",46.4 min
CO[C@@]1(NC(=O)Cc2cccs2)C(=O)N2C(C(=O)O)=C(COC(N)=O)CS[C@@H]21 [Cefoxitin],MIC,Escherichia coli MG1655; [2],100 µg/mL
same,MIC,Escherichia coli MG1655; [3],50 µg/mL
same,Lag time before ATP,[1]; [7],10.9 min
same,Lag time before ATP,[1]; [8],6.1 min
same,Lag time before ATP,[1]; [9],4.9 min
same,Lag time before ATP,[1]; [12],4.9 min
same,Lag time before ATP,[1]; [13],4.9 min
O=C(N[C@H](CO)[C@H](O)c1ccc([N+](=O)[O-])cc1)C(Cl)Cl [Chloramphenicol],MIC,Escherichia coli MG1655; [2],25 µg/mL
same,MIC,Escherichia coli MG1655; [3],25 µg/mL
same,ATP leakage,"[1]; high concentrations, twice or four times the MIC, LB, FIG. 9",important leakage
CC[C@H]1OC(=O)[C@H](C)[C@@H](O[C@H]2C[C@@](C)(OC)[C@@H](O)[C@H](C)O2)[C@H](C)[C@@H](O[C@@H]2O[C@H](C)C[C@H](N(C)C)[C@H]2O)[C@](C)(O)C[C@@H](C)C(=O)[C@H](C)[C@@H](O)[C@]1(C)O [Erythromycin],MIC,Escherichia coli MG1655; [2],1600 µg/mL
same,MIC,Escherichia coli MG1655; [3],400 µg/mL
same,Amplitude of ATP release,"[1]; bacteriostatic antibiotics, LB, FIG. 9",very weak amplitude
Cc1c(N)nc([C@H](CC(N)=O)NC[C@H](N)C(N)=O)nc1C(=O)N[C@H](C(=O)N[C@H](C)[C@@H](O)[C@H](C)C(=O)N[C@H](C(=O)NCCC1=N[C@@H](c2nc(C(=O)NCCCCN=C(N)N)cs2)CS1)[C@@H](C)O)[C@@H](O[C@@H]1O[C@@H](CO)[C@@H](O)[C@H](O)[C@@H]1O[C@H]1O[C@H](CO)[C@@H](O)[C@H](OC(N)=O)[C@@H]1O)c1cnc[nH]1 [Zeocin],MIC in LB,Escherichia coli MG1655; [4],200 µg/mL
same,MIC in MOPS glucose 0.4%,Escherichia coli MG1655; [11],200 µg/mL
same,Lag time before ATP,[1]; [7],112.2 min
same,Lag time before ATP,[1]; [8],113.1 min
same,Lag time before ATP,[1]; [9],97.5 min
same,Lag time before ATP,[1]; [12],85.7 min
same,Lag time before ATP,[1]; [13],68.6 min
same,Lag time before ATP,[1]; [14],57.8 min
same,Lag time before ATP,"[1]; antibiotic at 800 μg/mL, LB, 37° C.",51.9 min
NCC[C@H](O)C(=O)N[C@@H]1C[C@H](N)[C@@H](O[C@H]2O[C@H](CN)[C@@H](O)[C@H](O)[C@H]2O)[C@H](O)[C@H]1O[C@H]1O[C@H](CO)[C@@H](O)[C@H](N)[C@H]1O [Amikacin],MIC,Escherichia coli MG1655; [2],1.56 µg/mL
same,MIC,Escherichia coli MG1655; [3],12.5 µg/mL
same,Shape of ATP release trace,"[1]; LB medium, 37° C., FIG. 8",bi-phasic
same,Lag time before ATP,[1]; [5],42 min
same,Lag time before ATP,[1]; [6],31.0 min
same,Lag time before ATP,[1]; [7],21.6 min
same,Lag time before ATP,[1]; [8],16.0 min
same,Lag time before ATP,[1]; [9],10.5 min
